Assay results: patent publication US10766893B2 (priority 2017, dated 2020)

Assays:
Test in all cases: biochemical
Assay type in all cases: biochemical
Settings in all cases: 15 nM tritium labelled cAMP, 1 hr at room temperature
[1] = molecular target: PDE1C (Homo sapiens (Human), UniProt Q14123)
Description: (§1) Table 1 lists the IC50 value for inhibition of PDE1 by the compounds of the invention. […] PDE1 assays are described in the Experimental Section.

[2] = molecular target: PDE1A (Homo sapiens (Human), UniProt P54750)
Description: as §1

[3] = molecular target: PDE1B (Homo sapiens (Human), UniProt Q01064)
Description: as §1

Chain of PDE1B (Q01064 whole entry): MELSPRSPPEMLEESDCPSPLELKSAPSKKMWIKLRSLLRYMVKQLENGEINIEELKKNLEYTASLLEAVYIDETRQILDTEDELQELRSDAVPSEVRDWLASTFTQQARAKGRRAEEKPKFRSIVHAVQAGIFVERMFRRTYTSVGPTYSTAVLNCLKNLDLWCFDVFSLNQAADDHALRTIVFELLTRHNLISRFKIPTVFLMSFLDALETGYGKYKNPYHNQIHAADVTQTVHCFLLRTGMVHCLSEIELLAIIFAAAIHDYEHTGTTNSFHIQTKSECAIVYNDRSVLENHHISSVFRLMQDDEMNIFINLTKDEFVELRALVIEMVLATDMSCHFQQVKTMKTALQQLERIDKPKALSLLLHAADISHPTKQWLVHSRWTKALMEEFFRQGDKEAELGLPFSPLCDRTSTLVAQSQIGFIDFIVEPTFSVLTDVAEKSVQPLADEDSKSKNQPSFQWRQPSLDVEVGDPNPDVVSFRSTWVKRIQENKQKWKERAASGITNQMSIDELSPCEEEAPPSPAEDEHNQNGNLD
Chain of PDE1C (Q14123 whole entry): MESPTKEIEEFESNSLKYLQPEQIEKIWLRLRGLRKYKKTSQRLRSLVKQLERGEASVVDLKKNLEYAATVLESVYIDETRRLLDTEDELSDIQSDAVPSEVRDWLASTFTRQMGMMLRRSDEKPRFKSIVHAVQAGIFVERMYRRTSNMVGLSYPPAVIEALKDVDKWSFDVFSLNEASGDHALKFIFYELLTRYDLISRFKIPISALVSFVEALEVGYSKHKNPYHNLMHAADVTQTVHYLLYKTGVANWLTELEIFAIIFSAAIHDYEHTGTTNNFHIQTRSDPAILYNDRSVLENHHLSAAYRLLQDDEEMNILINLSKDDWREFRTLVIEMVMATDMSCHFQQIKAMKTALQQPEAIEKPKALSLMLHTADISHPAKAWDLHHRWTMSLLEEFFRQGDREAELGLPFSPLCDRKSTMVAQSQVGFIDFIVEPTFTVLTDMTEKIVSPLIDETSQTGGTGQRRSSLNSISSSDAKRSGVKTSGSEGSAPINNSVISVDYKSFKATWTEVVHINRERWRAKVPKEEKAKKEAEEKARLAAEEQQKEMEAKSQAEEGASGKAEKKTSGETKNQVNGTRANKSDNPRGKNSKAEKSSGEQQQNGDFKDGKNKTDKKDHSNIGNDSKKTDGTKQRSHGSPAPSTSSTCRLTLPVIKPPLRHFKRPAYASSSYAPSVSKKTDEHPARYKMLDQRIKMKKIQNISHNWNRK
Chain of PDE1A (P54750 whole entry): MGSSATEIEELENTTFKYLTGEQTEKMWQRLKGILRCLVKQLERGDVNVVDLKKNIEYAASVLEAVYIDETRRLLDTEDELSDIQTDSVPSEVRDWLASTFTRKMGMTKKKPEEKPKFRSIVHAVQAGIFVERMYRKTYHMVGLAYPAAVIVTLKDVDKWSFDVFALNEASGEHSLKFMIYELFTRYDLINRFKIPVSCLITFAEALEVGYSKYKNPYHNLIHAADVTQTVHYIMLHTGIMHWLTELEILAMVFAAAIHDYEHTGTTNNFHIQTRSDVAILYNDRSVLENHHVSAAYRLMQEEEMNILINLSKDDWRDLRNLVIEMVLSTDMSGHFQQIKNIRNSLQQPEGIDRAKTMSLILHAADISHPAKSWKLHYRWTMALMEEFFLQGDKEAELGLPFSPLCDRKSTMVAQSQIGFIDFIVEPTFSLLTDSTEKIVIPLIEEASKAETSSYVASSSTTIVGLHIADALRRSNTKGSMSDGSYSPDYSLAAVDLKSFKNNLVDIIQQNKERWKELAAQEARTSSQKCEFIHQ

Compound	IC50 [1] [nM]	IC50 [2] [nM]	IC50 [3] [nM]
CCOc1nnccc1-c1cc(NCc2cnn(C)c2)c2c(n1)c(C)nn2C(C)CC (single isomer, unassigned) [Example 5b, 5-(3-ethoxypyridazin-4-yl)-3-methyl-N-[(1-methylpyrazol-4-yl)methyl]-1-[1-methylpropyl]pyrazolo[4,3-b]pyridin-7-amine]	102	25	6.1
CCOc1nnccc1-c1cc(NCc2cnn(C)c2)c2c(n1)c(C)nn2C(C)CC (single isomer, unassigned) [Example 6b, 5-(3-ethoxypyridazin-4-yl)-3-methyl-N-[(1-methylpyrazol-4-yl)methyl]-1-[1-methylpropyl]pyrazolo[4,3-b]pyridin-7-amine]	11	1.9	0.36
CCOc1cnccc1-c1cc(NCc2cnn(C)c2)c2c(n1)c(C)nn2C(C)CC (single isomer, unassigned) [Example 32b, 5-(3-ethoxy-4-pyridyl)-3-methyl-N-[(1-methylpyrazol-4-yl)methyl]-1-[1-methylpropyl]pyrazolo[4,3-b]pyridin-7-amine]	180	57	7.8
CCOc1ncccc1-c1cc(NCc2cccn3cnnc23)c2c(n1)c(C)nn2C(C)C [Example 3a, 5-(2-ethoxy-3-pyridyl)-1-isopropyl-3-methyl-N-([1,2,4]triazolo[4,3-c]pyridin-8-ylmethyl)pyrazolo[4,3-b]pyridin-7-amine]	–	4.7	0.32
CCOc1nnccc1-c1cc(NCc2cccnc2OC)c2c(n1)c(C)nn2C(C)C [Example 7b, 5-(3-ethoxypyridazin-4-yl)-1-isopropyl-N-[(2-methoxy-3-pyridyl)methyl]-3-methyl-pyrazolo[4,3-b]pyridin-7-amine]	–	11	1.7
CCOc1nnccc1-c1cc(NCc2cccc3oc(C)nc23)c2c(n1)c(C)nn2C(C)C [Example 14a, 5-(3-ethoxypyridazin-4-yl)-1-isopropyl-3-methyl-N-[(2-methyl-1,3-benzoxazol-4-yl)methyl]pyrazolo[4,3-b]pyridin-7-amine]	–	9.3	0.21
CCOc1nnccc1-c1cc(NCc2ccccn2)c2c(n1)c(C)nn2C(C)C [Example 14b, 5-(3-ethoxypyridazin-4-yl)-1-isopropyl-3-methyl-N-(2-pyridylmethyl)pyrazolo[4,3-b]pyridin-7-amine]	53	–	1.1
CCOc1nnccc1-c1cc(NCc2cc(C)[nH]n2)c2c(n1)c(C)nn2C(C)C [Example 22b, 5-(3-ethoxypyridazin-4-yl)-1-isopropyl-3-methyl-N-[(5-methyl-1H-pyrazol-3-yl)methyl]pyrazolo[4,3-b]pyridin-7-amine]	15	–	0.4
CCOc1nnccc1-c1cc(NCc2cccc(OC)n2)c2c(n1)c(C)nn2C(C)C [Example 24b, 5-(3-ethoxypyridazin-4-yl)-1-isopropyl-N-[(6-methoxy-2-pyridyl)methyl]-3-methyl-pyrazolo[4,3-b]pyridin-7-amine]	71	–	1.4
CCOc1nnccc1-c1cc(NCc2cccc(F)n2)c2c(n1)c(C)nn2C(C)C [Example 26b, 5-(3-ethoxypyridazin-4-yl)-N-[(6-fluoro-2-pyridyl)methyl]-1-isopropyl-3-methyl-pyrazolo[4,3-b]pyridin-7-amine]	44	6.5	–
CCOc1cnccc1-c1cc(NCc2cnn(C)c2)c2c(n1)c(C)nn2C(C)C [Example 28b, 5-(3-ethoxy-4-pyridyl)-1-isopropyl-3-methyl-N-[(1-methylpyrazol-4-yl)methyl]pyrazolo[4,3-b]pyridin-7-amine]	33	–	2.1
Cc1nc2c(-c3cc(NCc4cnn(C)c4)c4c(n3)c(C)nn4C(C)C)cccc2o1 [Example 35b, 1-isopropyl-3-methyl-5-(2-methyl-1,3-benzoxazol-4-yl)-N-[(1-methylpyrazol-4-yl)methyl]pyrazolo[4,3-b]pyridin-7-amine]	43	39	–
